Measurements from patent publication US12091684B2, “Platelet-derived mitochondria treatment and method of generating multipotent cells” (Hackensack Meridian Health, Inc., priority 2020, dated 2024).

Tests used:
γ-secretase = test: DAPT-blocking experiment (CD34 expression by flow cytometry); assay type: cell-based, human; conditions: PB-IPCs, 10 μM DAPT, 100 μg/mL mitochondria where present, 7-14 days, n=4
Protocol: For a DAPT-blocking experiment, PB-IPCs were treated with 100 μg/mL mitochondria plus 10 μM DAPT (Sigma, Saint Louis, MO, USA, Catalog #D5942) for 7-14 days in non-tissue, culture-treated 24-well plates or Petri dishes with serum-free NutriStem® hPSC XF culture medium (Corning, New York, NY, USA), at 37° C. and 8% CO2. Subsequently, both treated and untreated PB-IPC were collected to examine the expression of CD34 by flow cytometry.

CXCR4 = CXCR4 (Homo sapiens, UniProt P61073); conditions: 30 μM, 4 hours, purified PB-IPC nuclei with labeled mitochondria
Chain of CXCR4 (P61073 whole entry): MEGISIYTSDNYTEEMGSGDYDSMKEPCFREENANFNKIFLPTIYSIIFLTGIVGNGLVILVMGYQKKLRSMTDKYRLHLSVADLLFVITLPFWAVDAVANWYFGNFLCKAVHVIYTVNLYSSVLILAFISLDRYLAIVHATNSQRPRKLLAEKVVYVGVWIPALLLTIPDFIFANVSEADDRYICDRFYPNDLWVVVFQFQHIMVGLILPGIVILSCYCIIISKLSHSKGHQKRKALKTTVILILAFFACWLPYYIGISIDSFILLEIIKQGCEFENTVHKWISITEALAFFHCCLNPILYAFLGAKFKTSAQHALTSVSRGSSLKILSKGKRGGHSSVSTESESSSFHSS
Protocol: To determine whether the action of SDF-1/CXCR4 contributed to the penetration of mitochondria into nuclei, a blocking experiment with CXCR4 receptor antagonist AMD3100 was performed. The purified PB-IPC's nuclei were treated with MitoTracker Deep Red-labeled purified mitochondria in the presence or absence of AMD 3100 (30 μM). The equal concentration of solvent DMSO served as a control. After 4 hours of the treatment, nuclei were washed twice with PBS and prepared for flow cytometry.

SMILES | percentage of CD34+ cells (γ-secretase) | percentage of MitoTracker Deep Red-positive nuclei (CXCR4)
C[C@H](NC(=O)Cc1cc(F)cc(F)c1)C(=O)N[C@H](C(=O)OC(C)(C)C)c1ccccc1 [DAPT, N—[N-(3,5-difluorophenacetyl)-L-alanyl]-S-phenylglycine t-butyl ester] | 2.59%±0.13% | –
c1cc(CN2CCCNCCNCCCNCC2)ccc1CN1CCCNCCNCCCNCC1 [AMD 3100] | – | markedly reduced
